Test results from the NIST ThermoML archive (doi:10.1016/j.tca.2006.10.005).
± gives the expanded uncertainty stated by the source.

Assay: molar heat capacity at constant pressure
Settings: 101.33 kPa, Crystal

O=C([O-])[O-].[Li+].[Li+] [lithium carbonate]
Settings	molar heat capacity at constant pressure [J/K/mol]
303.15 K	99.89 ± 0.63
323.15 K	100.98 ± 0.85
343.15 K	107.69 ± 1
363.15 K	111.21 ± 1.1
383.15 K	115.61 ± 1.3
403.15 K	116.88 ± 2.4
443.15 K	120.05 ± 3.7
483.15 K	129.08 ± 1.9
533.15 K	132.77 ± 2.9
563.15 K	137.29 ± 3.1
